Laboratory results published in US20040229810A1, “Gastrin compositions and formulations, and methods of use and preparation” (priority 2002, published 2004).
Like-named read-outs stand apart in the source and are kept apart here. Where a SMILES comes first, the peptide text is derived from it. Where no end group is shown, it is not given here. [ ]: non-standard residue; d: D form. pGlu = O=C1CC[C@@H](C(=O)O)N1

Legend:
in vivo = conditions: male, cynomolgus monkey, iv
Protocol: Male animals were used in the example. […] The dosing solutions for intravenous injection were administered as a single bolus dose via the saphenous vein at a dose volume of 1 mL/kg. A 0.2 mL saline flush was administered following dosing in order to ensure administration of the complete dose volume. The actual volume administered to each animal was based on the animal's most recent body weight.
Serial blood samples (approximately 0.5 ml per time point) were collected via the brachial or femoral vein at the following time points: 0 (pre-dose), 1, 3, 5, 10, 15, 30 minutes, 1, 2, and 4 hours post dose.
Each sample was collected into a tube containing EDTA and kept on wet ice pending centrifugation. The samples were centrifuged under refrigeration for a minimum of 10 minutes at 1, 500 g (RCF) and the resultant plasma was transferred into duplicate tubes and placed on dry ice. All samples were stored frozen for PK analysis as described below.
Gastrin in plasma samples was measured with a well established competitive radioimmunoassay for the quantitative determination of gastrin (Russell et al., Postgraduate Medical Journal 52:645, 1976). The antibody used in the assay was raised in rabbits against synthetic human gastrin I conjugated with carbodiimide to bovine serum albumin. The antigen was labeled with ^125I and the presence of the antigen:antibody reactions were detected using a gamma counter.
To calculate pharmacokinetic parameters, blood levels of gastrin at each time point for every animal were entered in to Graphpad Prism 3.0 (GraphPad Software, San Diego, Calif., USA,_www.graphpad.com).

[1] = system: NOD mice with recent onset diabetes; assay: Modified vs unmodified gastrin in combination with GLP-1 in preventing diabetes progression in NOD mice with recent onset diabetes; type: in vivo; conditions: in combination with GLP-1 (100 μg/kg/day); gastrin compound 3 μg/kg/day gastrin equivalent i.p. daily for 14 days; compared to GLP-1 with native gastrin (Compound B)
Excerpt: In this example, the effect of treatment by a combination of GLP-1 and unmodified gastrin and GLP-1 and modified gastrin compounds/conjugates were examined in NOD mice with recent onset diabetes, to determine whether administration of both GLP-1 and gastrin would prevent severe hyperglycemia as well as increase pancreatic insulin content in NOD mice with recent-onset diabetes. The GLP-1 used was GLP-1 which is the biologically active fragment of human/mouse GLP-1 (having residues at positions 7-36 compared to the precursor from which the fragment is processed; obtained from Bachem H6795). […]
Non-obese diabetic (NOD) female mice, ages 12-14 weeks, were monitored for development of onset of diabetes (fasting blood glucose >8.0 to 15 mmol/l), and within 48 hours after onset of symptoms, four groups of mice were each treated as follows: one group was treated with vehicle only; and the other group was administered 100 μg/kg/day of GLP-1, and the remaining groups were treated with combination of GLP-1 (100 μg/kg/day) and gastrin compound (3 μg/kg/day gastrin equivalent), each treatment administered via the intraperitoneal route daily.
Therapy was administered for 14 days. Animals were monitored weekly for fasting blood glucose (FBG) levels. FBG levels were measured at about 12 hours after food had been withdrawn, and 24 hours after the last peptide or vehicle injection. […]

[2] = cited from earlier work

CC(C)C[C@H](NC(=O)[C@H](Cc1c[nH]c2ccccc12)NC(=O)CNC(=O)[C@H](Cc1ccc(O)cc1)NC(=O)[C@H](C)NC(=O)[C@H](CCC(=O)O)NC(=O)[C@H](CCC(=O)O)NC(=O)[C@H](CCC(=O)O)NC(=O)[C@H](CCC(=O)O)NC(=O)[C@H](CCC(=O)O)NC(=O)[C@H](CC(C)C)NC(=O)[C@H](Cc1c[nH]c2ccccc12)NC(=O)[C@@H]1CCCN1C(=O)CNC(=O)[C@@H]1CCC(=O)N1)C(=O)N[C@@H](CC(=O)O)C(=O)N[C@@H](Cc1ccccc1)C(N)=O [Compound B] ([pGlu]GPWLEEEEEAYGWLDF-NH2)
AUC (in vivo; 3 ug/kg): 4.18 ng·h/mL
Cmax (in vivo; 3 ug/kg): 27 ng/mL
Tmax (in vivo; 3 ug/kg): 2 min
half-life (in vivo; 3 ug/kg, t ½): 5 min
AUC (in vivo; 30 ug/kg): 42.1 ng·h/mL
Cmax (in vivo; 30 ug/kg): 268 ng/mL
Tmax (in vivo; 30 ug/kg): 1 min
half-life (in vivo; 30 ug/kg, plasma t1/2): 4 to 5 min
half-life (in vivo; 30 ug/kg, t ½): 5 min
AUC (in vivo; cynomolgus, 10 ug/kg): 15.7 ng·h/mL
Cmax (in vivo; cynomolgus, 10 ug/kg): 127 ng/mL
Tmax (in vivo; cynomolgus, 10 ug/kg): 1 min
half-life (in vivo; cynomolgus, 10 ug/kg, t ½): 4 min

Compound E: gastrin peptide residues 2-17 of SEQ ID NO: 4 with N-terminal Cys residue, no linker (CGPWLEEEEEAYGWLDF; not fully specified (C-terminus); ends and bridges not checked)
reducing blood glucose levels in diabetic animals [1]: more effecting in reducing blood glucose levels

Compound Q: human serum albumin conjugate of N-terminal Cys gastrin peptide residues 2-17 of SEQ ID NO: 4 with (GA)5 linker (GPWLEEEEEAYGWLDF; not fully specified (N-terminus, C-terminus); ends and bridges not checked; also: human serum albumin conjugate)
reducing blood glucose levels in diabetic animals [1]: more effecting in reducing blood glucose levels

Gastrin-17
circulating half-life ([2]; in vivo): 5 to 9 min

gastrin-34 ([pGlu]LGPQGPPHLVADPSKKQGPWLEEEEEAYGWMDF-NH2; ends and bridges not checked; UniProt P01350 59-92, looked up)
circulating half-life ([2]; background statement): about 35 mins
